# Reference: patent US20030044909A1, “Melatonin-receptor expression cells and thier uses” (JCR PHARMACEUTICALS Co., Ltd., priority 1997, published 2003)
# Biological target: mel-1a receptor expressed in CHO cell (Homo sapiens, UniProt P48039)
# Conditions: mel-1a/CHO cells; for increase in metabolic rate via the mel-1a receptor (responsiveness, specificity): cytosensor (FIG. 11)
# Method: mel-1a/CHO cells were cultivated in advance in the DMEM medium containing 800 μg/ml G418 and 10% FBS, and mel-1a/CHO cells in the logarithmic growth phase were washed with PBS, treated with trypsin and diluted with the same medium to a concentration of 2.5×10^5/ml. 1 ml of cell suspension was seeded in each cell cup for cytosensor, and the cell cups were filled on the outside with 2 ml of the medium and then left on standing overnight udner th conditions of 5% CO2/37° C.
# While paying attention not to cause air bubbles to mingle, a spacer was disposed on the bottom of each cell cup with use of sterile tweezers on the following day. When air bubbles were below the spacer, they were to be removed with a pipette. A capsule insert was placed in each cup, while preventing air bubbles from mingling, and the medium in the 1 ml portion was added from the top to thereby bury the cup in the medium, whereby it was to be ascertained that no air bubble had been drained or mingled into the spacer and insert.
# Powdered low buffer RPM1 1640 medium (MDC) was dissolved in 1 liter of distilled water for tissue culture (Cosmo Bio), and the solution was adjusted to pH 7.4 and then suction-filtered through a 0.45 μm filter.
# The Cyto software package of a personal computer was started up. A measuring medium was set in a ctyosensor, and fluid feeding system was switched for the measuring medium. The fluid inside the sensor chamber was aspirated out, and the measuring medium was placed in the 1.5 ml portion in to each cell, where a capsule cell prepared in advance was disposed while preventing air bubbles from mingling. The sensor chamber was connected to a cytosensor without causing air bubbles to mingle.
# Each of the prepared samples was set on the cytosensor under the conditions where the metabolic rate was stabilized. Measurement with the cytosensor was performed by switching the fluid feeding from the measuring medium to the sample solution to stimulate the cells, then putting the fluid-feeding back to the measuring medium and measuring a change caused in metabolic rate of the cells, whereby stimulation with the sample was effected for 2 min. and subsequently the measuring medium continued to be fluid-fed until the metabolic rate was returned to the level determined prior to stimulation with the sample. […] Accordingly, stimulation with the sample was given at a regular interval of 40 min.
# The cytosensor was designed to detect the release outside the cell of hydrogen ions, which is understood to reflect the metabolic activity of the cell, as a rate of change in extracellular hydrogen ion concentration. Upon binding of a ligand to the receptor expressed on the cell surface, intracellular signal transduction takes place, resulting in increased cellular metabolic activity to thereby release hydrogen ions outside the cell.
# Chain of mel-1a receptor expressed in CHO cell (P48039 whole entry): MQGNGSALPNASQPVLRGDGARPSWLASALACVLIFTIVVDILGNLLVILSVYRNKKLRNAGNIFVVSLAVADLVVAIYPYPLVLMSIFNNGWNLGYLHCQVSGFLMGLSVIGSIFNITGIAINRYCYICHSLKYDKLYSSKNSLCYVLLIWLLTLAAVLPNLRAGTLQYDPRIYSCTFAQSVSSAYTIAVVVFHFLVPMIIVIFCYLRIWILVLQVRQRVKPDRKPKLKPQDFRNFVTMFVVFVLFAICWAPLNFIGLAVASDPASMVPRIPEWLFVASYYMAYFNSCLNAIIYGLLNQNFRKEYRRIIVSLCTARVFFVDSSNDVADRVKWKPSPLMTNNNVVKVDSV
SMILES,"increase in metabolic rate via the mel-1a receptor (responsiveness, specificity)",time for the metabolic activity to decline to the level prior to stimulation (after 2 min stimulation)
COc1ccc2[nH]cc(CCN)c2c1 [5-methoxytryptamine],not to bring about an increase in metabolic rate,–
COc1ccc2[nH]cc(C[C@H](N)C(=O)O)c2c1 [5-methoxytryptophan],not to bring about an increase in metabolic rate,–
CC(=O)NCCc1c[nH]c2ccc(O)cc12 [N-acetylserotonin],not to bring about an increase in metabolic rate,–
COc1ccc2[nH]cc(CCNC(C)=O)c2c1 [melatonin],responds specifically to melatonin alone,about 40 min
NCCc1c[nH]c2ccc(O)cc12 [serotonin],not to bring about an increase in metabolic rate,–
N[C@@H](Cc1c[nH]c2ccccc12)C(=O)O [tryptophan],not to bring about an increase in metabolic rate,–
